{
  "source": "paper PMC8459971",
  "about": "“Evaluation of the hepatotoxicity of the novel GPR40 (FFAR1) agonist CPL207280 in the rat and monkey” (PLoS ONE, 2021)",
  "key": {"MRP2": {"target": "MRP2 (Homo sapiens, UniProt Q92887)", "sequence (Q92887 whole entry, the tested form may be a part)": "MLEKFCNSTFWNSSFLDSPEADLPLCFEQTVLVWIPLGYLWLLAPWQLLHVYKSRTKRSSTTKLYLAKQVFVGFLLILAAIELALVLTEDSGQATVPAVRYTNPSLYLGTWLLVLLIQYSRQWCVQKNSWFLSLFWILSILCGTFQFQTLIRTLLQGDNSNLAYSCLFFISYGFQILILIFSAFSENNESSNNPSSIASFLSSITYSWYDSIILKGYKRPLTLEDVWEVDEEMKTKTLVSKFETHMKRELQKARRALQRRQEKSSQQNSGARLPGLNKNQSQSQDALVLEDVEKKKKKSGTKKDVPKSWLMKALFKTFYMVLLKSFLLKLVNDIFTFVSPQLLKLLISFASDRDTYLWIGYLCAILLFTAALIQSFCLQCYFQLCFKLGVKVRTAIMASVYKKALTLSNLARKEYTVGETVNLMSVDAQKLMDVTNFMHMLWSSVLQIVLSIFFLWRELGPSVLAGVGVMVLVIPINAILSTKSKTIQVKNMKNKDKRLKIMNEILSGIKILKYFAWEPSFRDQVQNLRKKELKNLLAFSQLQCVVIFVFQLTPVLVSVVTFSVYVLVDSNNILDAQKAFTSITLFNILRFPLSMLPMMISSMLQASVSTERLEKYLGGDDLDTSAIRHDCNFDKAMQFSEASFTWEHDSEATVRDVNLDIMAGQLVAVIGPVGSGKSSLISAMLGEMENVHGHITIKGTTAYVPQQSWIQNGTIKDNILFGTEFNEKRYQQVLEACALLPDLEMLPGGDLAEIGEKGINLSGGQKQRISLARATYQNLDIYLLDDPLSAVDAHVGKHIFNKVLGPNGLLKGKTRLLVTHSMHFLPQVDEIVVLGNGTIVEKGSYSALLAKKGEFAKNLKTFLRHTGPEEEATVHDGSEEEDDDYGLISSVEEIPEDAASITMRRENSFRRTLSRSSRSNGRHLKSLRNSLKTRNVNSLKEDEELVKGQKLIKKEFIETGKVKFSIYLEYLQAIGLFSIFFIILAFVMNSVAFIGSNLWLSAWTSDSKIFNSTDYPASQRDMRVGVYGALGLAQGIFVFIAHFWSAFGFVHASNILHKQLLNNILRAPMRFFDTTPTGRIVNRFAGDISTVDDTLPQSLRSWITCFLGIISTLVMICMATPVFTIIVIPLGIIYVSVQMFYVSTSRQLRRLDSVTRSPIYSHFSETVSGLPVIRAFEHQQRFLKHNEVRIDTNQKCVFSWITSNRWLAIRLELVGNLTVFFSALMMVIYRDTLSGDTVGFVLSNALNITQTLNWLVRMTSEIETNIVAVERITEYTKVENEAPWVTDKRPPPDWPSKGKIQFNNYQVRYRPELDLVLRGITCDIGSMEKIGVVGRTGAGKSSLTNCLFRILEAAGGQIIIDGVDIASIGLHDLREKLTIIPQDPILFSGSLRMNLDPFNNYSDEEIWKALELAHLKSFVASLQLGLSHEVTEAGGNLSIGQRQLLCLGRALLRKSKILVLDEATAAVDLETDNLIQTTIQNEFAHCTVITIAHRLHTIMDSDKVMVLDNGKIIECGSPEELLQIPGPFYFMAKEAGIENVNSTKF", "test": "Vesicular transport inhibition assay, MRP2;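 as to Accumulation (counts per minute; CPM) with AMP: ATP 4 mM vs AMP background separates transporter uptake from diffusion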;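 as to Accumulation (counts per minute; CPM) with ATP: ATP 4 mM vs AMP background separates transporter uptake from diffusion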;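 as to all read-outs here: membrane vesicles with probe substrate plus 2 mM glutathione, incubated with 4 mM ATP or AMP (AMP as background control), vesicle-retained substrate measured by liquid scintillation counting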", "details": "for Accumulation (counts per minute; CPM) with AMP / Accumulation (counts per minute; CPM) with ATP: MRP2", "experimental": "In the vesicular transport inhibition assay (for BSEP, MRP) compounds were incubated with membrane vesicle preparations and the probe substrate. Incubations were carried out in the presence of 4 mM ATP or AMP to distinguish between transporter-mediated uptake and passive diffusion into the vesicles. For MRP2 and MRP3, reactions were carried out in the presence of 2 mM glutathione. Compounds were added to the reaction mixture in 0.75 μL of solvent (1% of the final incubation volume). […] Reactions were initiated by the addition of 25 μL of 12 mM MgATP (or 12 mM AMP in assay buffer as a background control) and preincubated separately. Reactions were quenched by the addition of 200 μL of ice-cold washing buffer and immediate filtration via glass fiber filters mounted on a 96-well plate (filter plate). The filters were washed (5 × 200 μL of ice-cold washing buffer), dried, and the amount of substrate inside the filtered vesicles was determined by liquid scintillation counting."}, "OATP1B3": {"target": "T1, OATP1B3 (Homo sapiens, UniProt Q9NPD5)", "T1 sequence (Q9NPD5 1-702)": "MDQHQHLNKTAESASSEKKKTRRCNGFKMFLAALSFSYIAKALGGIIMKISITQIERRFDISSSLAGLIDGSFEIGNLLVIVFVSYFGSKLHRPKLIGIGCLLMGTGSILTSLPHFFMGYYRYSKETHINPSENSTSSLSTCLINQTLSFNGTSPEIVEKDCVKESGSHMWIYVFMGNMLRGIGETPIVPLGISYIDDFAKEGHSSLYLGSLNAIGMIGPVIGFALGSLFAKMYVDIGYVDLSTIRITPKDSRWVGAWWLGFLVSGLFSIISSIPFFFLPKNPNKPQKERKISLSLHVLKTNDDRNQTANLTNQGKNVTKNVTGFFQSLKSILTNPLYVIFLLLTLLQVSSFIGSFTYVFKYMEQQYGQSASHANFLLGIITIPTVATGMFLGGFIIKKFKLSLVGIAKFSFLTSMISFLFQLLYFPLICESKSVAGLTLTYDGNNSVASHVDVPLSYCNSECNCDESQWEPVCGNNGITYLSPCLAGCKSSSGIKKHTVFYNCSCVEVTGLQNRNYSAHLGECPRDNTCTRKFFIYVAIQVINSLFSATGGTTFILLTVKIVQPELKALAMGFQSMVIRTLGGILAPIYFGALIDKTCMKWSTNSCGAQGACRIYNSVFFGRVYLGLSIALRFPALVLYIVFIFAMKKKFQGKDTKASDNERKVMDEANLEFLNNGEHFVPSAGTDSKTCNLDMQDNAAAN", "test": "Uptake transporter inhibition assay, OATP1B3", "experimental": "(§2) For the uptake transporter inhibition assay, cells were washed twice with 100 μL of the appropriate buffer (HK, pH 7.4) for OATP1B1, followed by HBSS (pH 7.4) for (NTCP, OAT1, OAT2v1, OATP1A2, and OATP1B3). Uptake experiments were carried out at 37 ± 1°C in 50 μL of the respective buffer containing the probe substrate and the compound or solvent. […] After the experiment, cells were washed twice with 100 μL of cold appropriate buffer and lysed with 50 μL of 0.1 M NaOH. Radiolabeled probe substrate transport was determined by measuring an aliquot (35 μL) from each well for liquid scintillation counting."}, "[1]": {"test": "Stability in microsomes, rat", "format": "in vitro ADME", "details": "for average DEG [%]: rat microsomes, with cofactors", "description": "(§1) The final incubation volume was 500 μL. Two control compounds (verapamil and donepezil) were included for each microsomal species, along with the appropriate vehicle control. The reactions were terminated by transferring 50 μL of incubate to 100 μL methanol containing an internal standard (metoprolol) at appropriate time points (0, 10, 20, 40, 60, and 120 min for the test compound and 0, 5, 10, 20, 40, and 60 min for the control compounds). The termination plates were centrifuged at 4000 x g at 4°C for 30 min to precipitate the protein. The supernatants were then collected for analysis, and LC-MS/MS was used for detection purposes. The system consisted of an Acquity™ Binary Solvent Manager, Acquity™ 4-position heated column manager, 2777 Ultra High Pressure Autosampler, and a Xevo-TQ MS triple quadrupole mass spectrometer (Waters Ltd., Herts, UK). This process was carried out twice."}, "OATP1B1": {"target": "T2, OATP1B1 (Homo sapiens, UniProt Q9Y6L6)", "T2 sequence (Q9Y6L6 1-691)": "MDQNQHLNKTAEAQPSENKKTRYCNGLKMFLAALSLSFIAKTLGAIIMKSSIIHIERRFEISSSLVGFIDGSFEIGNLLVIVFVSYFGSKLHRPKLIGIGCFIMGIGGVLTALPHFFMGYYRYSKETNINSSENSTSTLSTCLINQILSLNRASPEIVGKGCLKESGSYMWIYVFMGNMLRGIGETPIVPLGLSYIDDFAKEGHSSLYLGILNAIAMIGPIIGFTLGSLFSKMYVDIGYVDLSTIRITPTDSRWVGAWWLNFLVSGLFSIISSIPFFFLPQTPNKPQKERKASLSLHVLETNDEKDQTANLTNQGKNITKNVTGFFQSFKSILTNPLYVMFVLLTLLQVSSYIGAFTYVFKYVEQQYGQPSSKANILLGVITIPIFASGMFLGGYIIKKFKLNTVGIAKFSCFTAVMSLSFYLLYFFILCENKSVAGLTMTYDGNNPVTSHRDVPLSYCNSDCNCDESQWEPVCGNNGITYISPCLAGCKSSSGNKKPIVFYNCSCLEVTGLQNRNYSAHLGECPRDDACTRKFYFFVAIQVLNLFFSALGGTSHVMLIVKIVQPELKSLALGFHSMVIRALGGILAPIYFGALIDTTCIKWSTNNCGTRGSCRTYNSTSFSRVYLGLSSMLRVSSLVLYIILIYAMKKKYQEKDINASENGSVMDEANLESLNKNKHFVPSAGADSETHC", "test": "Uptake transporter inhibition assay, OATP1B1", "experimental": "as §2"}, "[2]": {"test": "Single-dose pharmacokinetics in rats (p.o. and i.v.)", "format": "in vivo, rat", "design": "plasma conc: unit not given here", "details": "for plasma conc: single animals; for AUC: read-out: AUC"}, "[3]": {"test": "Stability in microsomes, monkey", "format": "in vitro ADME", "details": "for average DEG [%]: monkey microsomes, with cofactors", "description": "as §1"}, "[4]": {"details": "Rat (Sprague Dawley) microsomes, mean n = 2"}, "[5]": {"details": "rat, plasma, iv, 3 mg/kg, rats, 3 mg/kg i.v."}, "[6]": {"details": "rat, plasma, po, 3 mg/kg, rats, 3 mg/kg p.o."}, "[7]": {"details": "Monkey (Cynomolgus) microsomes, mean n = 2"}},
  "note": "Several values for one entry are separate records, joined by “and”; a condition that tells them apart may be missing. Equal values may be shown once. Read-outs that look alike come from different tables or passages of the source.",
  "data": [
    {"smiles": "Cc1cc(OCCCS(C)(=O)=O)cc(C)c1-c1cccc(COc2ccc3c(c2)OC[C@H]3CC(=O)O)c1", "note": "[TAK-875, fasiglifam, reference compound]", "values": [
      {"measurement": "IC50", "setting": "MRP2", "value": 48.1, "unit": "µM"},
      {"measurement": "Accumulation (counts per minute; CPM) with AMP", "setting": "MRP2; conc 0.07 µM", "value": "234 CPM and 221 CPM"},
      {"measurement": "Accumulation (counts per minute; CPM) with ATP", "setting": "MRP2; conc 0.07 µM", "value": "3160 CPM and 3355 CPM"},
      {"measurement": "Accumulation (counts per minute; CPM) with AMP", "setting": "MRP2; conc 0.21 µM", "value": "218 CPM and 217 CPM"},
      {"measurement": "Accumulation (counts per minute; CPM) with ATP", "setting": "MRP2; conc 0.21 µM", "value": "3318 CPM and 3579 CPM"},
      {"measurement": "Accumulation (counts per minute; CPM) with AMP", "setting": "MRP2; conc 0.62 µM", "value": "249 CPM and 186 CPM"},
      {"measurement": "Accumulation (counts per minute; CPM) with ATP", "setting": "MRP2; conc 0.62 µM", "value": "3453 CPM and 3166 CPM"},
      {"measurement": "Accumulation (counts per minute; CPM) with AMP", "setting": "MRP2; conc 16.67 µM", "value": "211 CPM and 200 CPM"},
      {"measurement": "Accumulation (counts per minute; CPM) with ATP", "setting": "MRP2; conc 16.67 µM", "value": "2989 CPM and 3430 CPM"},
      {"measurement": "Accumulation (counts per minute; CPM) with AMP", "setting": "MRP2; conc 50.00 µM", "value": "220 CPM and 191 CPM"},
      {"measurement": "Accumulation (counts per minute; CPM) with ATP", "setting": "MRP2; conc 50.00 µM", "value": "1700 CPM and 1670 CPM"},
      {"measurement": "IC50", "setting": "OATP1B3", "value": 3.44, "unit": "µM"},
      {"measurement": "half-life at 3 μM", "setting": "[1]; [4]", "value": 1.98, "unit": "h"},
      {"measurement": "microsomal CLint at 3 μM", "setting": "[1]; [4]", "value": 11.6, "unit": "µL/min/mg"},
      {"measurement": "average DEG [%]", "setting": "[1]; 0 min", "value": 100.0, "unit": "%"},
      {"measurement": "average DEG [%]", "setting": "[1]; 20 min", "value": 81.3, "unit": "%"},
      {"measurement": "average DEG [%]", "setting": "[1]; 40 min", "value": 79.5, "unit": "%"},
      {"measurement": "average DEG [%]", "setting": "[1]; 60 min", "value": 68.4, "unit": "%"},
      {"measurement": "IC50", "setting": "OATP1B1", "value": 0.49, "unit": "µM"},
      {"measurement": "plasma conc", "setting": "[2]; rat, 3 mg/kg i.v., 0.08 h, 3 mg/kg", "value": "14090 and 15902 and 15227 and 5072"},
      {"measurement": "plasma conc", "setting": "[2]; rat, 3 mg/kg i.v., 0.5 h, 3 mg/kg", "value": "14558 and 12270 and 9258 and 3810"},
      {"measurement": "plasma conc", "setting": "[2]; rat, 3 mg/kg i.v., 1 h, 3 mg/kg", "value": "8089 and 7692 and 11373 and 4600"},
      {"measurement": "plasma conc", "setting": "[2]; rat, 3 mg/kg i.v., 2 h, 3 mg/kg", "value": "5223 and 7517 and 9423"},
      {"measurement": "plasma conc", "setting": "[2]; rat, 3 mg/kg i.v., 4 h, 3 mg/kg", "value": "3618 and 4301 and 3765"},
      {"measurement": "plasma conc", "setting": "[2]; rat, 3 mg/kg i.v., 7 h, 3 mg/kg", "value": "1974 and 2103 and 1928 and 4512"},
      {"measurement": "plasma conc", "setting": "[2]; rat, 3 mg/kg i.v., 12 h, 3 mg/kg", "value": "1056 and 769 and 1435"},
      {"measurement": "plasma conc", "setting": "[2]; rat, 3 mg/kg p.o., 0.5 h, 3 mg/kg", "value": "1176 and 692 and 854 and 1110"},
      {"measurement": "plasma conc", "setting": "[2]; rat, 3 mg/kg p.o., 1 h, 3 mg/kg", "value": "1699 and 1467 and 1460 and 1557"},
      {"measurement": "plasma conc", "setting": "[2]; rat, 3 mg/kg p.o., 2 h, 3 mg/kg", "value": "1890 and 1694 and 1808 and 1814"},
      {"measurement": "plasma conc", "setting": "[2]; rat, 3 mg/kg p.o., 4 h, 3 mg/kg", "value": "1443 and 1502 and 1610 and 1643"},
      {"measurement": "plasma conc", "setting": "[2]; rat, 3 mg/kg p.o., 8 h, 3 mg/kg", "value": "681 and 636 and 614 and 960 and 463"},
      {"measurement": "plasma conc", "setting": "[2]; rat, 3 mg/kg p.o., 24 h", "value": 0},
      {"measurement": "Tmax", "setting": "[2]; [5]", "value": 0.083, "unit": "h"},
      {"measurement": "Cmax", "setting": "[2]; rat, plasma, iv, 3 mg/kg, rats, 3 mg/kg i.v., n = 5, read-out: Cmax", "value": "15100 ± 916", "unit": "ng/mL"},
      {"measurement": "AUC", "setting": "[2]; [5]", "value": "45200 ± 4680", "unit": "ng·h/mL"},
      {"measurement": "bioavailability", "setting": "[2]; rat, plasma, oral, rats, 3 mg/kg p.o. vs i.v., read-out: F (bioavailability)", "value": 38, "unit": "%"},
      {"measurement": "Tmax", "setting": "[2]; [6]", "value": 2, "unit": "h"},
      {"measurement": "AUC", "setting": "[2]; [6]", "value": "15800 ± 1510", "unit": "ng·h/mL"},
      {"measurement": "Vd", "setting": "[2]; rat, plasma, rats, 3 mg/kg", "value": "0.25 ± 0.01", "unit": "L/kg"},
      {"measurement": "k el", "setting": "[2]; rat, plasma, rats, 3 mg/kg", "value": "6.67e-05", "unit": "s⁻¹"},
      {"measurement": "greater distribution volume (Vd) than CPL207280", "setting": "[2]; rats, 3 mg/kg", "value": 20, "unit": "%"},
      {"measurement": "half-life at 3 μM", "setting": "[3]; [7]", "value": 0.5, "unit": "h"},
      {"measurement": "microsomal CLint at 3 μM", "setting": "[3]; [7]", "value": 39.2, "unit": "µL/min/mg"},
      {"measurement": "average DEG [%]", "setting": "[3]; 0 min", "value": 100.0, "unit": "%"},
      {"measurement": "average DEG [%]", "setting": "[3]; 20 min", "value": 61.2, "unit": "%"},
      {"measurement": "average DEG [%]", "setting": "[3]; 40 min", "value": 37.2, "unit": "%"},
      {"measurement": "average DEG [%]", "setting": "[3]; 60 min", "value": 32.0, "unit": "%"}
    ]}
  ]
}
